Reference: patent US4906661A, “Esters of aryloxypropanolamine derivatives” (E. I. Du Pont de Nemours and Company, priority 1989, dated 1990)
Values joined by “and” are separate entries in the source; they are usually repeats but may differ in a detail not shown here. Equal entries are not always repeated. Structures can show the parent of a compound that is named as a salt. Where two headings read alike, the source gives them in different places. Values belong to the compound of their own block, whether it stands above or below them.

Legend:
[1] = target: β1 receptors, guinea pig right atria (Cavia porcellus, UniProt H0W3H1); assay: cell-based
Method: Each tissue was suspended between a fixed glass rod and a Statham Universal Transducer connected to a Beckman recorder. Atria were allowed to beat spontaneously under a loading tension of approximately 0.5 gm. Intrinsic depressant or stimulant activity was determined for each compound by progressively increasing concentrations in the tissue baths at 60-minute intervals. Tissues were not washed between increments. The maximum concentration showing little or no cardiodepressant activity was chosen for blockade experiments. Changes in rate in response to isoproterenol, a standard β-receptor agonist, were measured in the absence and presence of test compounds. Spiral strips of guinea pig trachea were suspended under 5 gm resting tension and incubated with phentolamine, tropolone and cocaine. Active tension was generated by addition of carbachol (3.0×10^-7 M) and decreases in tension in response to isoproterenol were quantitated. Cumulative concentration-response curves were produced with isoproterenol both before and after 60-minute incubation of test compounds with atria and trachea. […] The blocking potency of test compounds was estimated by computing pA2 values (-log KB) by the method of Furchgott, the Pharmacological Differentiation of Adrenergic Receptors, Ann. […] The degree of cardioselectivity was estimated from the ratio, KB trachea/KB atria (10^(pA2 atria-pA2 trachea)). A ratio greater than one indicates cardioselectivity. Test drugs were dissolved in distilled water and added to the bath (30 ml) in a volume of 10 or 100 μl.

[2] = target: β2 receptors, guinea pig trachea (Cavia porcellus, UniProt Q8K4Z4); assay: cell-based
Method: Each tissue was suspended between a fixed glass rod and a Statham Universal Transducer connected to a Beckman recorder. Atria were allowed to beat spontaneously under a loading tension of approximately 0.5 gm. Intrinsic depressant or stimulant activity was determined for each compound by progressively increasing concentrations in the tissue baths at 60-minute intervals. Tissues were not washed between increments. […] Changes in rate in response to isoproterenol, a standard β-receptor agonist, were measured in the absence and presence of test compounds. Spiral strips of guinea pig trachea were suspended under 5 gm resting tension and incubated with phentolamine, tropolone and cocaine. Active tension was generated by addition of carbachol (3.0×10^-7 M) and decreases in tension in response to isoproterenol were quantitated. Cumulative concentration-response curves were produced with isoproterenol both before and after 60-minute incubation of test compounds with atria and trachea. […] The blocking potency of test compounds was estimated by computing pA2 values (-log KB) by the method of Furchgott, the Pharmacological Differentiation of Adrenergic Receptors, Ann. […] A ratio greater than one indicates cardioselectivity. Test drugs were dissolved in distilled water and added to the bath (30 ml) in a volume of 10 or 100 μl.

[3] = system: β-adrenergic receptors, guinea pig trachea vs right atria; assay: Cardioselectivity, KB trachea/KB atria; format: cell-based; settings: 10^(pA2 atria-pA2 trachea); ratio greater than one indicates cardioselectivity
Method: Each tissue was suspended between a fixed glass rod and a Statham Universal Transducer connected to a Beckman recorder. Atria were allowed to beat spontaneously under a loading tension of approximately 0.5 gm. Intrinsic depressant or stimulant activity was determined for each compound by progressively increasing concentrations in the tissue baths at 60-minute intervals. Tissues were not washed between increments. The maximum concentration showing little or no cardiodepressant activity was chosen for blockade experiments. Changes in rate in response to isoproterenol, a standard β-receptor agonist, were measured in the absence and presence of test compounds. Spiral strips of guinea pig trachea were suspended under 5 gm resting tension and incubated with phentolamine, tropolone and cocaine. Active tension was generated by addition of carbachol (3.0×10^-7 M) and decreases in tension in response to isoproterenol were quantitated. Cumulative concentration-response curves were produced with isoproterenol both before and after 60-minute incubation of test compounds with atria and trachea. […] The degree of cardioselectivity was estimated from the ratio, KB trachea/KB atria (10^(pA2 atria-pA2 trachea)). A ratio greater than one indicates cardioselectivity. Test drugs were dissolved in distilled water and added to the bath (30 ml) in a volume of 10 or 100 μl.

[4] = system: heart rate response to isoproterenol; assay: Duration and potency of beta-blocking action in vivo, 3-hour infusion in anesthetized dogs, isoproterenol challenge; design: species or system dog; settings: Table II; for Recovery Time 50%: 50% recovery from β-blockade after termination of infusion; for Recovery Time 80%: 80% recovery from β-blockade after termination of infusion; for % I, percent inhibition of heart rate response to isoproterenol: end of 3-hour infusion, isoproterenol 0.5 μg/kg
Method: The duration of β-blockade was determined In vivo using pentobarbital-anesthetized dogs instrumented for measurement of heart rate using a Beckman cardiotachometer triggered electronically by a phasic aortic blood pressure signal. Both vagus nerves were served in the cervical region and the animals were mechanically ventilated. The experimental design used employed a 3-hour infusion of test compound. Bolus doses of isoproterenol (0.5 μg/kg) were used to assess the degree of β-blockade and recovery from β-blockade after […] of the infusion. The doses were spaced at 10-minute intervals and were given before, during and following the infusion of test compounds. The infusion rate was adjusted so that at the end of the 3-hour infusion period the degree of isoproterenol inhibition averaged about 50% of control. Following termination of blocker infusion, percent recovery from β-blockade was computed and the time associated with 80% recovery estimated.
^c Time in minutes for 50% recovery from 50% blockade levels after 3
Infusions of drug. Number of experiments is equal to or greater than thre
for each compound unless noted otherwise. Tabulated data are mean values
^c The betablocking activities were evaluated Invivo in a canine
model. The betablocker was infused in the animal for 3 hours with the dos
adjusted to give approximately 50%. blockage of the Isoproternolinduced
tachycardia. The infusion was then terminated and the time required for
80% recovery of blockade was recorded as duration of action of the
compound. The amount of drug infused during the 3 hours was averaged and
expressed as potency in ug/kg/min.

[5] = Half-life in dog whole blood (procedure D); format: in vitro ADME; settings: 37° C., read-out: T1/2 dog blood
Method: (§1) In each experiment, 1 ml of a solution containing 50 μg of the test compound was added to 1 ml of whole blood or 1 ml of a 33% (w/v) liver homogenate. The samples were incubated in a Dubnoff shaking metabolic incubator for 2.5, 5.0, 10.0, 20.0, 30.0 and 60.0 minutes at 37° C. At the designated time periods, the test mixtures were removed from the incubator and transferred to a 0° C. ice bath. Acetonitrile (2 ml) was immediately added and the mixtures were mixed to stop enzymatic hydrolysis. Zero time samples were prepared by adding 2 ml of acetonitrile to denature the proteins prior to addition of the test compounds. After centrifugation to sediment denatured proteins, 2 ml of the supernatant was removed and analyzed by high pressure liquid chromatography, using a mobile phase of 60% acetonitrile/40% 0.05 M sodium phosphate buffer (pH 6.6), a U.V. detector and Waters μ Bondapak Phenyl column.
(§2) The half life of each test compound was determined graphically by plotting the decrease in concentrations as a function of time.

[6] = Half-life in dog liver homogenate (procedure D); format: in vitro ADME; settings: 37° C., read-out: T1/2 dog liver homogenate
Method: as §1, §2

[7] = Table IV, mean, n ≥ 2, range ≤ ± 0.2 units, read-out: pA2 Atria (converted)
[8] = Table IV, mean, n ≥ 2, range ≤ ± 0.2 units, read-out: pA2 Trachea (converted)
[9] = Table I, guinea pig right atria, vs isoproterenol, -log KB, read-out: PA2 Rt. Atria (converted)
[10] = Table I, guinea pig trachea, vs isoproterenol, -log KB, read-out: PA2 Trachea (converted)
[11] = Table V, guinea pig right atria (B1), read-out: In Vitro pA2 Atria (converted)
[12] = Table VI, read-out: pA2 Atria (converted)

β1 receptors, guinea pig right atria, sequence (H0W3H1 1-470): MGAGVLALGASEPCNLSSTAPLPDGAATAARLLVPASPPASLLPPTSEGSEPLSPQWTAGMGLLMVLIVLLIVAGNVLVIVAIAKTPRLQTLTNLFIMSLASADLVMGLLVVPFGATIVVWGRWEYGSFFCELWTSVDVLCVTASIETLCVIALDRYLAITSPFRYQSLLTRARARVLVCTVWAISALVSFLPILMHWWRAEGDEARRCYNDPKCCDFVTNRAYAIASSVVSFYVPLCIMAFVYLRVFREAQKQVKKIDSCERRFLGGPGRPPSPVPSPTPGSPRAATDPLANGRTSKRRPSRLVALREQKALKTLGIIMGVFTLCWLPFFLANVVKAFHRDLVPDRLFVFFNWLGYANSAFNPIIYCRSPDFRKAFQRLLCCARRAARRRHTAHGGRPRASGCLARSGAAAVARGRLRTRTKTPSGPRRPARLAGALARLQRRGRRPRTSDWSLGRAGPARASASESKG
β2 receptors, guinea pig trachea, sequence (Q8K4Z4 whole entry): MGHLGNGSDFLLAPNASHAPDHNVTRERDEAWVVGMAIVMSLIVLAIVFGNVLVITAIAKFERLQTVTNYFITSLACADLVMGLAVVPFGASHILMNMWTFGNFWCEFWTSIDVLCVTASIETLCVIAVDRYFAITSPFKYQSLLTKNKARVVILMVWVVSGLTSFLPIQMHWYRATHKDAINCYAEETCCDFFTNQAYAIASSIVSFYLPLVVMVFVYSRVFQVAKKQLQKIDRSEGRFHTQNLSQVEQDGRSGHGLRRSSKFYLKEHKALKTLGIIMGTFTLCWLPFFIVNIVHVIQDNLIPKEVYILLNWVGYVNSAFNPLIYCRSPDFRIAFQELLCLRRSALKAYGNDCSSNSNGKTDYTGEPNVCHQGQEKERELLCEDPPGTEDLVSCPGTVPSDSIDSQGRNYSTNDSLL

SMILES: COC(=O)c1ccccc1OCC(O)CNCCNC(=O)Nc1ccccc1 (stereo not drawn) [Example IV, Methyl 2-[2-Hydroxy-3-[N-[2-[N-(phenylaminocarbonyl)amino]ethyl]amino]propoxy]benzoate]
Kb [1, 9]: 7.94 nM
Cardioselectivity KB (Trachea)/KB (Atria) [3]: 25
Recovery Time 50% [4]: > 60 min
Recovery Time 80% [4]: > 60 min
% I, percent inhibition of heart rate response to isoproterenol [4]: 72 ± 3%
Kb [2, 10]: 200 nM
half-life [5]: > 180 min
half-life [6]: > 180 min

SMILES: COC(=O)c1ccccc1OCC(O)CNC(C)(C)CNC(=O)N1CCOCC1 (stereo not drawn) [Example VI, Methyl 2-[2-Hydroxy-3-[N-[1,1-dimethyl-2-(1-morpholinocarbonylamino)ethyl]amino]propoxy]benzoate Oxalate]
Kb [1, 9]: < 1 nM
Recovery Time 50% [4]: > 60 min
Recovery Time 80% [4]: > 60 min
% I, percent inhibition of heart rate response to isoproterenol [4]: 93% and 89%

SMILES: CCOC(=O)CCc1nsnc1OCC(O)CNCCNC(=O)C(C)C (stereo not drawn) [No. 1 (Table V)]
Kb [1, 11]: 100 nM

SMILES: CCOC(=O)CCc1nsnc1OCC(O)CNC(C)(C)CNC(=O)OCC (stereo not drawn) [No. 1 (Table VI)]
Kb [1, 12]: 63.1 nM

SMILES: CCOC(=O)CCc1nsnc1OCC(O)CNC(C)(C)CNC(=O)C(C)C (stereo not drawn) [No. 2 (Table V)]
Kb [1, 11]: 6.31 nM

SMILES: CCOC(=O)CCc1nsnc1OCC(O)CNC(C)(C)CNC(N)=O (stereo not drawn) [No. 2 (Table VI)]
Kb [1, 12]: 39.8 nM

SMILES: CCOC(=O)CCc1nsnc1OCC(O)CNCCNC(C)=O (stereo not drawn) [No. 3 (Table VI)]
Kb [1, 12]: 501 nM

SMILES: CCOC(=O)CCc1nsnc1OCC(O)CNC(C)CNC(C)=O (stereo not drawn) [No. 4 (Table VI)]
Kb [1, 12]: 100 nM

SMILES: CCOC(=O)CCc1nsnc1OCC(O)CNC(C)(C)CNC(C)=O (stereo not drawn) [No. 5 (Table VI)]
Kb [1, 12]: 79.4 nM

Further lines, with some results ahead:

Kb [1, 7]: 3.16 nM
Kb [2, 8]: 20 nM
SMILES: CCOC(=O)c1ccccc1OCC(O)CNCCNC(=O)C(C)C (stereo not drawn) [Example 1]

Kb [1, 7]: 5.01 nM
Kb [2, 8]: 10 nM
SMILES: CCOC(=O)NCC(C)(C)NCC(O)COc1ccccc1C(=O)OCC (stereo not drawn) [Example 2]

Kb [1, 7]: 39.8 nM
Kb [2, 8]: 20 nM
SMILES: CCOC(=O)c1ccccc1OCC(O)CNCCNS(=O)(=O)N(C)C (stereo not drawn) [Example 4]

Kb [1, 7]: 158 nM
Kb [2, 8]: 25.1 nM
SMILES: CCOC(=O)c1ccccc1OCC(O)CNCCNS(=O)(=O)c1ccc(C)cc1 (stereo not drawn) [Example 5]

Kb [1, 7]: 63.1 nM
Kb [2, 8]: 20 nM
SMILES: CCOC(=O)CCc1ccccc1OCC(O)CNCCNC(=O)C(C)C (stereo not drawn) [Example 6]

Kb [1, 9]: 158 nM
Kb [2, 10]: 79.4 nM
SMILES: COC(=O)c1ccccc1OCC(O)CNCCNS(=O)(=O)c1ccc(C)cc1.O=C(O)C(=O)O (stereo not drawn) [Example VII, Methyl 2-[2-Hydroxy-3-[N-[2-[N-(4-methylphenylsulfonyl)amino]ethyl]amino]propoxy]benzoate Oxalate]
Cardioselectivity KB (Trachea)/KB (Atria) [3]: 2

Kb [1, 12]: 79.4 nM
SMILES: CCOC(=O)CCc1nsnc1OCC(O)CNCCNC(=O)Cc1ccccc1 (stereo not drawn) [No. 6 (Table VI)]
